# Patent US9950002B2, “Nanoparticles/theranostic vehicles” (Regents of the University of Minnesota, priority 2013, dated 2018)
# Test system: BBMVE cell monolayer challenged with DutchAβ40
# Assay: Cytokines inhibition study (IL-6, IL-1β, TNF-α ELISA)
# Assay type: cell-based, bovine
# Settings: 24 hr; TNV=1.74 mg/ml, DutchAβ40=25 μg/ml, cyclophosphamide=3.05 mg/ml
# Description: At the end of 24 hour treatment, the luminal or abluminal solutions of the control and the treated Transwells® was assayed for IL-6, IL-1β and TNF-α using cytokine enzyme linked immunosorbent assay (ELISA) kit (Thermo Scientific, Rockford, Ill.). The cytokine levels secreted by the control BBMVE cell monolayer incubated with hanks balanced salt solution (HBSS) were used as the baseline values.
compound,measurement,value
O=P1(N(CCCl)CCCl)NCCCO1 (stereo not shown) [cyclophosphamide],"secretion of IL-6, IL-1β and TNF-α triggered by DutchAβ40, luminal side",significant decrease
